This is an account of results in patent US20250206730A1 (AUTOTELIC BIO INC., priority 2022, published 2025).

Assay [1] concerns TGF-β signaling. The experiment in a line: Assay for evaluating cellular inhibition of TGF-β signaling, HEK293 (SBE reporter) luciferase reporter. To be noted: Homo sapiens; HEK293 (SBE reporter) stable cells, 0.5% FBS, 2 h pre-treatment, TGF-β1 2 ng/mL 24 h; read-out: IC50 HEK 293 Cell. The assay is classed as cell-based. As to the method: [Example 2] Assay for Evaluating Cellular Inhibition of TGF-β Signaling
4T1 (SBE-luc2P) transient pool that have SBE-luc2P (hygro) expression plasmid or HEK293 (SBE reporter) stable cells (BPS bioscience) were seeded at 6×10^3 cells/well or 2.5×10^4 cells/well in 96-well plate, respectively. 4T1 (SBE-luc2P) transient pool were pre-treated with novel compound synthesized in Example 1 above in 0.2% FBS at approximately 60% confluence at 37° C. in 5% CO2. Also, HEK293 (SBE reporter) stable cells were pre-treated with each test compounds of formula in 0.5% FBS at approximately 80% confluence at 37° C. in 5% CO2. After 2 hours, cells were treated with TGF-β1 (2 ng/mL) for 24 h at 37° C. in 5% CO2. Cell lysates were prepared using Luciferase Assay (Promega) according to the manufacturer's instruction, and luminescence was measured by a plate reader, Biotek Synergy H1 (Vermont, USA).
For orientation: A reporter such as luciferase makes a cellular process visible.

Assay [2] deals with T1, ALK5 kinase (Homo sapiens, UniProt P36897).
T1 sequence (P36897 34-503): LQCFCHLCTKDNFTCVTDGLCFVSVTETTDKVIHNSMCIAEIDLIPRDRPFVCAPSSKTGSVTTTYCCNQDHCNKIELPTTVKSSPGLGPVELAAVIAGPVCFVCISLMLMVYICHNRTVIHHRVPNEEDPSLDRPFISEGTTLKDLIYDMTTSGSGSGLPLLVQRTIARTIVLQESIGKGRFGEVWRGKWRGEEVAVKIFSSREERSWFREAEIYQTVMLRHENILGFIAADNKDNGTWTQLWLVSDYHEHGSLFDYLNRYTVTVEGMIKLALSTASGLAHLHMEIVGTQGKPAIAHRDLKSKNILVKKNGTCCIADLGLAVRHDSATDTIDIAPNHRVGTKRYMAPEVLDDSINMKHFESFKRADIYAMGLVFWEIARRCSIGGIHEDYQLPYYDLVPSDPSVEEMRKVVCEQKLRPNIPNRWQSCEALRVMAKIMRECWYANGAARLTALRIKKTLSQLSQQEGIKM
The experiment in a line: LanthaScreen Eu Kinase Binding Assay. To be noted: Kinase Tracer 178, Eu-anti-GST Antibody, read-out: IC50 Enzyme. In a few lines:
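Tracer-displacement TR-FRET: after 30 min RT compound–kinase preincubation, Eu-labelled anti-GST antibody plus Kinase Tracer 178 were incubated 60 min at RT. Binding was read as a lower 665 nm/615 nm emission ratio (excitation 340 nm).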
(Time-resolved FRET reads energy transfer from a long-lived donor to a nearby acceptor.)

By IC50 is commonly meant the point on the concentration scale where inhibition reaches its midpoint. For `CCc1nc(-c2ccccc2)c(Oc2ccnc(Nc3ccc(NCCN4CCN(CC)CC4)cn3)c2)s1` [A-211, N^2-(4-((2-Ethyl-4-phenylthiazol-5-yl)oxy)pyridin-2-yl)-N^5-(2-(4-ethylpiperazin-1-yl)ethyl)pyridine-2,5-diamine], the IC50 in assay [1] is below 100 nM.

As for `CCc1nc(-c2ccccc2)c(Oc2ccnc(Nc3ccc(NCCN4CCN(C(C)C)CC4)cn3)c2)s1` [A-212, N^2-(4-((2-Ethyl-4-phenylthiazol-5-yl)oxy)pyridin-2-yl)-N^5-(2-(4-isopropylpiperazin-1-yl)ethyl)pyridine-2,5-diamine], the IC50 in assay [1] was below 100 nM.

Take `CCc1nc(-c2ccccc2)c(Oc2ccnc(Nc3ccc(-c4cn[nH]c4)cn3)c2)s1` [A-213, N-(5-(1H-Pyrazol-4-yl)pyridin-2-yl)-4-((2-ethyl-4-phenylthiazol-5-yl)oxy)pyridin-2-amine]: in assay [1], the IC50 was below 100 nM.

Take `CCc1nc(-c2ccccc2)c(Oc2ccnc(Nc3ccc(N4CCC(N)C4)cc3)c2)s1` (stereo not shown) [A-214, N-(4-(3-Aminopyrrolidin-1-yl)phenyl)-4-((2-ethyl-4-phenylthiazol-5-yl)oxy)pyridin-2-amine]: in assay [1], the half-inhibitory concentration (IC50) was below 100 nM.

Regarding `CCc1nc(-c2ccccc2)c(Oc2ccnc(Nc3ccc(N4CCC(NC)C4)cc3)c2)s1` (stereo not shown) [A-215, 4-((2-Ethyl-4-phenylthiazol-5-yl)oxy)-N-(4-(3-(methylamino)pyrrolidin-1-yl)phenyl)pyridin-2-amine], the IC50 in assay [1] is below 100 nM.

For the compound `CCc1nc(-c2ccccc2)c(Oc2ccnc(Nc3cccc(C(N)=O)n3)n2)s1` [A-241, 6-((4-((2-Ethyl-4-phenylthiazol-5-yl)oxy)pyrimidin-2-yl)amino)picolinamide], the IC50 in assay [1] was below 100 nM.

Consider `CCc1nc(-c2ccccc2)c(Oc2ccnc(Nc3cc(C(N)=O)ccn3)n2)s1` [A-242, 2-((4-((2-Ethyl-4-phenylthiazol-5-yl)oxy)pyrimidin-2-yl)amino)isonicotinamide], for which the IC50 in assay [1] was above 100 nM.

In the case of `CCc1nc(-c2ccccc2)c(Oc2ccnc(Nc3cccc(C(N)=O)c3)n2)s1` [A-243, 3-((4-((2-Ethyl-4-phenylthiazol-5-yl)oxy)pyrimidin-2-yl)amino)benzamide], the 50% inhibitory concentration (IC50) in assay [1] is below 100 nM.

With `CCc1nc(-c2ccccc2)c(Oc2ccnc(Nc3ccc(C(=O)O)cn3)n2)s1` [A-244, 6-((4-((2-Ethyl-4-phenylthiazol-5-yl)oxy)pyrimidin-2-yl)amino)nicotinic acid], the IC50 in assay [1] is above 100 nM.

As for `CCc1nc(-c2ccccc2)c(Oc2ccnc(Nc3ccc(C(N)=O)cn3)n2)s1` [A-245, 6-((4-((2-Ethyl-4-phenylthiazol-5-yl)oxy)pyrimidin-2-yl)amino)nicotinamide], the IC50 in assay [1] is above 100 nM.

On to `CCc1nc(-c2ccccc2)c(Oc2ccnc(Nc3ccc(C(=O)O)cc3)n2)s1` [A-246, 4-((4-((2-Ethyl-4-phenylthiazol-5-yl)oxy)pyrimidin-2-yl)amino)benzoic acid], for which the IC50 in assay [1] was below 100 nM.

As to `CCc1nc(-c2cccc(C)n2)c(Oc2ccnc(Nc3ccnc(C(N)=O)c3)c2)s1` [A-264, 4-((4-((2-Ethyl-4-(6-methylpyridin-2-yl)thiazol-5-yl)oxy)pyridin-2-yl)amino)picolinamide], the IC50 in assay [2] and in assay [1] was below 100 nM in each case.

In the case of `CCc1nc(-c2cccc(C)n2)c(Oc2ccnc(Nc3ccc(C(=O)NCCN(C)C)cn3)c2)s1` [A-269, N-(2-(Dimethylamino)ethyl)-6-((4-((2-ethyl-4-(6-methylpyridin-2-yl)thiazol-5-yl)oxy)pyridin-2-yl)amino)nicotinamide], the IC50 in assay [2] and in assay [1] was below 100 nM each time.

Consider `CCc1nc(-c2cccc(C)n2)c(Oc2ccnc(Nc3ccc(C(=O)OCC4CC4)cn3)c2)s1` [A-270], for which the IC50 in assay [2] and in assay [1] was below 100 nM throughout.

On to `CCc1nc(-c2cccc(C)n2)c(Oc2ccnc(Nc3ccc(C(=O)OCCN(C)C)cn3)c2)s1` [A-271, 2-(Dimethylamino)ethyl 6-((4-((2-ethyl-4-(6-methylpyridin-2-yl)thiazol-5-yl)oxy)pyridin-2-yl)amino)nicotinate], for which the 50% inhibitory concentration (IC50) in assay [2] and in assay [1] was below 100 nM throughout.

As for `CCc1nc(-c2cccc(C)n2)c(Oc2ccnc(Nc3cccc(NS(C)(=O)=O)c3)c2)s1` [A-272, N-(3-((4-((2-ethyl-4-(6-methylpyridin-2-yl)thiazol-5-yl)oxy)pyridin-2-yl)amino)phenyl)methanesulfonamide], the IC50 in assay [1] is below 100 nM.

On to `CCc1nc(-c2cccc(C)n2)c(Oc2ccnc(Nc3ccc(C(=O)Nc4cc(F)cc(C(=O)OCCN(C)C)c4)cn3)c2)s1` [A-273, 2-(Dimethylamino)ethyl 3-(6-((4-((2-ethyl-4-(6-methylpyridin-2-yl)thiazol-5-yl)oxy)pyridin-2-yl)amino)nicotinamido)-5-fluorobenzoate], for which the IC50 in assay [1] is above 100 nM.

For the compound `Cc1cccc(-c2nc(C3CC3)sc2Oc2ccnc(Nc3cc(C(N)=O)ccn3)c2)n1` [A-276, 2-((4-((2-Cyclopropyl-4-(6-methylpyridin-2-yl)thiazol-5-yl)oxy)pyridin-2-yl)amino)isonicotinamide], the IC50 in assay [2] and in assay [1] was below 100 nM throughout.

Regarding `Cc1cccc(-c2nc(C3CC3)sc2Oc2ccnc(Nc3cccc(S(N)(=O)=O)c3)c2)n1` [A-277, 3-((4-((2-Cyclopropyl-4-(6-methylpyridin-2-yl)thiazol-5-yl)oxy)pyridin-2-yl)amino)benzenesulfonamide], the IC50 in assay [2] and in assay [1] was below 100 nM in each case.

On to `Cc1cccc(-c2nc(C3CC3)sc2Oc2ccnc(Nc3cccc(C(N)=O)n3)c2)n1` [A-278, 6-((4-((2-Cyclopropyl-4-(6-methylpyridin-2-yl)thiazol-5-yl)oxy)pyridin-2-yl)amino)picolinamide], for which the IC50 in assay [2] and in assay [1] was below 100 nM in each case.

As to `CNC(=O)c1cccc(Nc2cc(Oc3sc(C4CC4)nc3-c3cccc(C)n3)ccn2)c1` [A-281, 3-((4-((2-Cyclopropyl-4-(6-methylpyridin-2-yl)thiazol-5-yl)oxy)pyridin-2-yl)amino)-N-methylbenzamide], in assay [1], the half-maximal inhibitory concentration (IC50) is below 100 nM.

On to `CNC(=O)c1ccc(Nc2cc(Oc3sc(C4CC4)nc3-c3cccc(C)n3)ccn2)nc1` [A-282, 6-((4-((2-Cyclopropyl-4-(6-methylpyridin-2-yl)thiazol-5-yl)oxy)pyridin-2-yl)amino)-N-methylnicotinamide], for which the concentration for half-maximal inhibition (IC50) in assay [1] is below 100 nM.

In the case of `NC(=O)c1cccc(Nc2cc(Oc3oc(C4CC4)nc3-c3ccccc3)ccn2)c1` [A-296, 3-((4-((2-Cyclopropyl-4-phenyloxazol-5-yl)oxy)pyridin-2-yl)amino)benzamide], in assay [1], the IC50 is below 100 nM.

On to `CNC(=O)c1cccc(Nc2cc(Oc3oc(C4CC4)nc3-c3ccccc3)ccn2)c1` [A-297, 3-((4-((2-Cyclopropyl-4-phenyloxazol-5-yl)oxy)pyridin-2-yl)amino)-N-methylbenzamide], for which the IC50 in assay [1] is below 100 nM.

With `NS(=O)(=O)c1cccc(Nc2cc(Oc3oc(C4CC4)nc3-c3ccccc3)ccn2)c1` [A-298, 3-((4-((2-Cyclopropyl-4-phenyloxazol-5-yl)oxy)pyridin-2-yl)amino)benzenesulfonamide], the concentration for half-maximal inhibition (IC50) in assay [1] was below 100 nM.

For the compound `NC(=O)c1cccc(Nc2cc(Oc3oc(C4CC4)nc3-c3ccccc3)ccn2)n1` [A-299, 6-((4-((2-Cyclopropyl-4-phenyloxazol-5-yl)oxy)pyridin-2-yl)amino)picolinamide], the IC50 in assay [1] is below 100 nM.

`O=C(O)c1cccc(Nc2cc(Oc3oc(C4CC4)nc3-c3ccccc3)ccn2)c1` [A-300, 3-((4-((2-Cyclopropyl-4-phenyloxazol-5-yl)oxy)pyridin-2-yl)amino)benzoic acid]: the IC50 in assay [1] was below 100 nM.

In the case of `O=C(O)c1cccc(Nc2cc(Oc3oc(C4CC4)nc3-c3ccccc3)ccn2)n1` [A-301, 6-((4-((2-Cyclopropyl-4-phenyloxazol-5-yl)oxy)pyridin-2-yl)amino)picolinic acid], the IC50 in assay [1] was below 100 nM.

Turning to `CNC(=O)c1cccc(Nc2cc(Oc3oc(C4CC4)nc3-c3ccccc3)ccn2)n1` [A-302, 6-((4-((2-Cyclopropyl-4-phenyloxazol-5-yl)oxy)pyridin-2-yl)amino)-N-methylpicolinamide], in assay [1], the IC50 was below 100 nM.

In the case of `CCc1nc(-c2ccccc2)c(Oc2ccnc(Nc3ccc(N4CCC(NC)C4)cn3)c2)s1` (stereo not shown) [A-312, 4-((2-Ethyl-4-phenylthiazol-5-yl)oxy)-N-(5-(3-(methylamino)pyrrolidin-1-yl)pyridin-2-yl)pyridin-2-amine], in assay [1], the IC50 was below 100 nM.
